# Reference: US20090075978A1, “SUBSTITUTED PROPIOLIC ACID AMIDES AND THEIR USE FOR PRODUCING DRUGS” (Grunenthal GmbH, priority 2005, published 2009)
# Molecular target: T1, mGluR5 receptor (pig) (Sus scrofa, UniProt I3LUI7)
# T1 construct: 450 μg of protein from brain homogenate is incubated; from tissue; host or cells: pig brain hemispheres without medulla, cerebellum and pons
# Assay: [3H]-MPEP binding in the mGluR5 receptor binding assay (pig brain homogenate)
# Conditions: 10 μM test compound; 5 nM [3H]-MPEP; 450 μg protein from pig brain homogenate; 60 min, room temperature
# Description: I. Method for Determining the Inhibition of [^3H]-MPEP Binding in the mGluR5 Receptor Binding Assay
# Pig brain homogenate is produced by homogenisation (Polytron Pt 3000, Kinematica AG, 10,000 revolutions per minute for 90 seconds) of pig brain hemispheres without medulla, cerebellum and pons in a buffer of pH 8.0 (30 mM Hepes, Sigma, order number H3375+1 tablet Complete Roche Diagnostics, order number 1836145 made up to 100 ml) in a ratio of 1:20 (brain weight/volume) and differential centrifugation at 900×g and 40,000×g. 450 μg of protein from brain homogenate is incubated in each case in 250 μl incubation batches in 96-well microtitre plates with 5 nM ^3[H]-MPEP (Tocris, order number R1212) (MPEP=[…]) and the compounds to be investigated ([…]) in the buffer (as above) at room temperature for 60 min.
# The batches are then filtered with the assistance of a Brandel Cell Harvester (Brandel, Robotic 9600 model) on Unifilter plates with glass filter mats (Perkin Elmer, order number 6005177) and then washed 3 times with buffer (as above) using 250 μl per sample. The filter plates are then dried for 60 min at 55° C. Then 30 μl of Ultima Gold™ scintillating material (Packard BioScience, order number 6013159) is added per well and after 3 hours the samples are measured using the β counter (Microbeta, Perkin Elmer). Nonspecific binding is determined by the addition of 10 μM MPEP (Tocris, order number 1212).
# T1 sequence (I3LUI7 19-1212): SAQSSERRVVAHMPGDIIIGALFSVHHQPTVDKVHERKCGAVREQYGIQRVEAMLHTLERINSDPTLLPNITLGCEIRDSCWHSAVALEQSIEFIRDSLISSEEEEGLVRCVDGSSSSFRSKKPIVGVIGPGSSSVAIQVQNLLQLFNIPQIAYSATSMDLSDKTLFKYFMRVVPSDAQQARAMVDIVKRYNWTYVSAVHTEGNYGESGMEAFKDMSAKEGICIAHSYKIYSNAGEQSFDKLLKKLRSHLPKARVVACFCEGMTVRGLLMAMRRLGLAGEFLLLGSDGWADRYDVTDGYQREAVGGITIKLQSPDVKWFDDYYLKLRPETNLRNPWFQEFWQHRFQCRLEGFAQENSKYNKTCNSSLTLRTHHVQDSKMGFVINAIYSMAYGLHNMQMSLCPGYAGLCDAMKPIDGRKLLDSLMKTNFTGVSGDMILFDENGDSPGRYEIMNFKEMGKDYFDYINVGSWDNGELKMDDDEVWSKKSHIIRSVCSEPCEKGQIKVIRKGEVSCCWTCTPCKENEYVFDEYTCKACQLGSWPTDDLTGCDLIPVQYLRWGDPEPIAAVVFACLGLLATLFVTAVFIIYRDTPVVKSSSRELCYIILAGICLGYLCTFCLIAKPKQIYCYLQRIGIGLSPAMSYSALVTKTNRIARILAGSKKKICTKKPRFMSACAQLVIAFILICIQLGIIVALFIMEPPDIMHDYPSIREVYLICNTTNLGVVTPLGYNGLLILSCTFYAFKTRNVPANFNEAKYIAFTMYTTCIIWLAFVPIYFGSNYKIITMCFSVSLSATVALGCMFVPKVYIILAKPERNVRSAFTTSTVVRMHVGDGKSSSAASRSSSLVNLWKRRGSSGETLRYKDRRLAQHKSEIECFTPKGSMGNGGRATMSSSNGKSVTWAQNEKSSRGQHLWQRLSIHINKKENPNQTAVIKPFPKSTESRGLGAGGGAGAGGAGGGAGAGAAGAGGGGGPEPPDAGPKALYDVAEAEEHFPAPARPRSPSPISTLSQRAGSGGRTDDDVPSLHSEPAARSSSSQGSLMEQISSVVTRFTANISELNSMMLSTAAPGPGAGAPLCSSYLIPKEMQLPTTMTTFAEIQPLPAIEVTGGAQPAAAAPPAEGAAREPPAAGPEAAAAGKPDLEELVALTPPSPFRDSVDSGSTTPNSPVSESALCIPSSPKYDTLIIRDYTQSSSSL
SMILES,mGluR5 receptor (pig) (10 μM) Inhibition (%),inhibition at 10 µM
"Cc1ccc(C#CC(=O)N2c3ccccc3CC2C)cc1C (centres unmarked) [Example 72, 1-(3-(3,4-dimethylphenyl)-propiolyl)-2-methyl-indoline]",25%,
"Cc1ccccc1C#CC(=O)N1c2ccccc2CC1C (centres unmarked) [Example 74, 1-(3-(2-tolyl)-propiolyl)-2-methyl-indoline]",12%,
"COc1ccc(Br)c(C#CC(=O)N2c3ccccc3CC2C)c1 (centres unmarked) [Example 73, 1-(3-(2-bromo-5-methoxyphenyl)-propiolyl)-2-methyl-indoline]",45%,
"Cc1ccc(C#CC(=O)N2c3ccccc3CC2C)cc1F (centres unmarked) [Example 68, 1-(3-(3-fluoro-4-methylphenyl)-propiolyl)-2-methyl-indoline]",11%,
"CC1Cc2ccccc2N1C(=O)C#Cc1ccccc1 (centres unmarked) [Example 44, 1-(3-phenyl-propiolyl)-2-methyl-indoline]",39%,
"COc1ccc(C#CC(=O)N2c3ccccc3CC2C)cc1 (centres unmarked) [Example 54, 1-(3-(4-methoxyphenyl)-propiolyl)-2-methyl-indoline]",46%,
"Cc1ccc(C#CC(=O)N2c3ccccc3CC2C)cc1 (centres unmarked) [Example 40, 1-(3-(4-tolyl)-propiolyl)-2-methyl-indoline]",34%,
"O=C(C#Cc1ccccc1F)N1CCc2ccccc2C1 [Example 37, 2-(3-(2-fluorophenyl)-propiolyl)-1,2,3,4-tetrahydro-isoquinoline]",83%,
"O=C(C#Cc1cccs1)N1CCc2ccccc2C1 [Example 55, 2-(3-(2-thienyl)-propiolyl)-1,2,3,4-tetrahydro-isoquinoline]",86%,
"O=C(C#Cc1ccccc1)N1CCn2cnnc2C1 [Example 10, 7-(3-phenyl-propiolyl)-5,6,7,8-tetrahydro-[1,2,4]triazolo[4,3-a]pyrazine]",,16%
"O=C(C#Cc1ccc(F)cc1)N1CCc2ccccc2C1 [Example 64, 2-(3-(4-fluorophenyl)-propiolyl)-1,2,3,4-tetrahydro-isoquinoline]",88%,
"CC1Cc2ccccc2N1C(=O)C#Cc1ccc(Cl)cc1Cl (centres unmarked) [Example 50, 1-(3-(2,4-dichlorophenyl)-propiolyl)-2-methyl-indoline]",16%,
"N#Cc1ccccc1C#CC(=O)N1CCc2ccccc2C1 [Example 76, 2-(3-(2-cyano-phenyl)-propiolyl)-1,2,3,4-tetrahydro-isoquinoline]",26%,
"O=C(C#Cc1ccc(C(F)(F)F)cc1)N1CCc2ccccc2C1 [Example 41, 2-(3-(4-trifluoromethylphenyl)-propiolyl)-1,2,3,4-tetrahydro-isoquinoline]",16%,
"Cc1ccc(C#CC(=O)N2CCCc3ccccc32)cc1 [Example 57, 1-(3-(4-tolyl)-propiolyl)-1,2,3,4-tetrahydro-quinoline]",18%,
"CC1Cc2ccccc2N1C(=O)C#Cc1ccccc1F (centres unmarked) [Example 38, 1-(3-(2-fluorophenyl)-propiolyl)-2-methyl-indoline]",49%,
"Cc1cc(C#CC(=O)N2c3ccccc3CC2C)ccc1F (centres unmarked) [Example 36, 1-(3-(4-fluoro-3-methylphenyl)-propiolyl)-2-methyl-indoline]",27%,

# Second part, the compound after the results:
mGluR5 receptor (pig) (10 μM) Inhibition (%),inhibition at 10 µM,SMILES
43%,,"Cc1ccc(C#CC(=O)N2CCc3ccccc3C2)cc1C [Example 71, 2-(3-(3,4-dimethylphenyl)-propiolyl)-1,2,3,4-tetrahydro-isoquinoline]"
77%,,"Cc1cc(C#CC(=O)N2CCc3ccccc3C2)ccc1F [Example 35, 2-(3-(4-fluoro-3-methylphenyl)-propiolyl)-1,2,3,4-tetrahydro-isoquinoline]"
12%,,"COc1cccc(C#CC(=O)N2CCc3ccccc3C2)c1 [Example 34, 2-(3-(3-methoxyphenyl)-propiolyl)-1,2,3,4-tetrahydro-isoquinoline]"
90%,,"N#Cc1cccc(C#CC(=O)N2CCc3ccccc3C2)c1 [Example 77, 2-(3-(3-cyano-phenyl)-propiolyl)-1,2,3,4-tetrahydro-isoquinoline]"
24%,,"COc1ccc(C#CC(=O)N2CCc3ccccc3C2)cc1 [Example 53, 2-(3-(4-methoxyphenyl)-propiolyl)-1,2,3,4-tetrahydro-isoquinoline]"
12%,,"Cc1ccc(C#CC(=O)N2CCc3ccccc3C2)cc1F [Example 67, 2-(3-(3-fluoro-4-methylphenyl)-propiolyl)-1,2,3,4-tetrahydro-isoquinoline]"
84%,,"O=C(C#Cc1ccccc1)N1CCc2ccccc2C1 [Example 43, 2-(3-phenyl-propiolyl)-1,2,3,4-tetrahydro-isoquinoline]"

# Same assay, conditions: pig brain homogenate; 5 nM [3H]-MPEP
row,SMILES,IC50
1,"O=C(C#Cc1ccccc1)N1CCc2ncccc2C1 [Example 4, 6-(3-phenyl-propiolyl)-5,6,7,8-tetrahydro-[1,6]naphthyridine]",2.32 µM
2,"O=C(C#Cc1ccccn1)N1CCc2ccccc2C1 [Example 7, 2-(3-pyrid-2-yl-propiolyl)-1,2,3,4-tetrahydro-isoquinoline]",8.57 µM
3,"O=C(C#Cc1ccccc1)N1CCCc2ccccc21 [Example 2, 1-(3-phenyl-propiolyl)-1,2,3,4-tetrahydro-quinoline]",1.75 µM
4,"O=C(C#Cc1ccccc1)N1CCc2onc(-c3ccccc3)c2C1 [Example 9, 3-phenyl-5-(3-phenyl-propiolyl)-4,5,6,7-tetrahydro-isoxazolo[4,5-c]pyridine]",2.36 µM
5,"O=C(C#Cc1ccccc1)N1Cc2ccccc2C1 [Example 6, 2-(3-phenyl-propiolyl)-2,3-dihydro-isoindole]",1.82 µM
6,"Cc1noc2c1CN(C(=O)C#Cc1ccccc1)CC2 [Example 8, 3-methyl-5-(3-phenyl-propiolyl)-4,5,6,7-tetrahydro-isoxazolo[4,5-c]pyridine]",3.55 µM
7,"O=C(C#Cc1cccc(Cl)c1)N1CCn2ccnc2C1 [Example 23, 7-(3-(3-chlorophenyl)-propiolyl)-5,6,7,8-tetrahydroimidazo[1,2-a]pyrazine]",0.32 µM

# The remaining lines, values ahead:
row,IC50,SMILES
1,0.72 µM,"COc1cc2c(cc1O)CCN(C(=O)C#Cc1cccc(Cl)c1)C2 [Example 16, 2-(3-(3-chlorophenyl)-propiolyl)-6-hydroxy-7-methoxy-1,2,3,4-tetrahydro-isoquinoline]"
2,3.1 µM,"COc1ccc2c(c1)CCN(C(=O)C#Cc1ccccc1)C2 [Example 14, 6-methoxy-2-(3-phenyl-propiolyl)-1,2,3,4-tetrahydro-isoquinoline]"
3,0.72 µM,"COc1cc2c(cc1O)CN(C(=O)C#Cc1cccc(Cl)c1)CC2 [Example 15, 2-(3-(3-chlorophenyl)-propiolyl)-7-hydroxy-6-methoxy-1,2,3,4-tetrahydro-isoquinoline]"
4,0.11 µM,"O=C(C#Cc1cccc(Cl)c1)N1CCCc2ccccc2C1 [Example 21, 2-(3-(3-chlorophenyl)-propiolyl)-2,3,4,5-tetrahydro-1H-benzo[c]azepine]"
5,0.0026 µM,"Cc1cccc2c1C(C)N(C(=O)C#Cc1cccc(Cl)c1)CC2 (centres unmarked) [Example 31, 2-(3-(3-chlorophenyl)-propiolyl)-1,8-dimethyl-1,2,3,4-tetrahydro-isoquinoline]"
6,0.076 µM,"COc1ccc2c(c1)CN(C(=O)C#Cc1cccc(Cl)c1)CC2 [Example 22, 2-(3-(3-chlorophenyl)-propiolyl)-7-methoxy-1,2,3,4-tetrahydro-isoquinoline]"
7,0.026 µM,"O=C(C#Cc1cccc(Cl)c1)N1CCn2cccc2C1 [Example 27, 2-(3-(3-chlorophenyl)-propiolyl)-1,2,3,4-tetrahydropyrrolo[1,2-a]pyrazine]"
8,2.72 µM,"COc1cc2c(cc1OC)CN(C(=O)C#Cc1cccc(Cl)c1)CC2 [Example 11, 2-(3-(3-chlorophenyl)-propiolyl)-6,7-dimethoxy-1,2,3,4-tetrahydro-isoquinoline]"
9,0.0084 µM,"COc1cccc2c1CN(C(=O)C#Cc1cccc(Cl)c1)CC2 [Example 29, 2-(3-(3-chlorophenyl)-propiolyl)-8-methoxy-1,2,3,4-tetrahydro-isoquinoline]"
10,0.055 µM,"Cc1ccc2c(c1)CCN(C(=O)C#Cc1cccc(Cl)c1)C2 [Example 20, 2-(3-(3-chlorophenyl)-propiolyl)-6-methyl-1,2,3,4-tetrahydro-isoquinoline]"
11,0.087 µM,O=C(C#Cc1cccc(Cl)c1)N1CCc2ccc(O)cc2C1 [Example 28]
12,0.24 µM,"COc1ccc2c(c1)CCN(C(=O)C#Cc1cccc(Cl)c1)C2 [Example 17, 2-(3-(3-chlorophenyl)-propiolyl)-6-methoxy-1,2,3,4-tetrahydro-isoquinoline]"
13,2.54 µM,"O=C(C#Cc1cccc(Cl)c1)N1CCc2cc(O)c(O)cc2C1 [Example 13, 2-(3-(3-chlorophenyl)-propiolyl)-7,6-dihydroxy-1,2,3,4-tetrahydro-isoquinoline]"
